The assay has as its target Protein arginine deiminase 4 (PAD4) (Homo sapiens, UniProt Q9UM07). Description: PAD4 ammonia release assay. It is filed as biochemical. The method, then: 1) Compound preparation: The compounds were diluted to 80× final concentrations. 2) The compounds were transferred to a 384-well assay plate by Tecan. DMSO: 1.25%. 3) Preparation of 1×Assay buffer: 100 mM HEPES, PH=8.0, 2 mM CaCl2, 50 mM NaCl, 0.1 mM TCEP, 0.6 mg/ml BSA. 4) 2× enzyme working solution (PAD4:20 nM) was prepared with assay buffer, and 10 μL of the obtained working solution were added to the 384-well assay plates. 5) The plate was centrifuged at 1000 rpm for 1 min. 6) After the centrifuge, the plate was incubated at RT for 15 min. 7) 2×BAEE substrate mix (600 μM) was prepared with assay buffer and 10 μL of the obtained substrate mix were added to each well. 8) The plate was centrifuged at 1000 rpm for 1 min and then incubated at RT for 60 min. 9) 1.5× detection mix (DTT:4 mM, OPA:3 mM, EDTA: 30 mM) was prepared, and 10 μL of the mix were added to the plate. 10) The plate was centrifuged at 1000 rpm for 1 min and then incubated at RT for 120 min. 11) The 384-well plates were placed into the Envision (PerkinElmer) and the assay data were collected.
The percent (%) inhibition at each concentration of compound was calculated based on and relative to the signal in the HPE (50 μM ref. compound) and ZPE (1.25% DMSO) wells included within each assay plate. The HPE worked as 100% inhibition, and the ZPE worked as 0% inhibition. The concentrations and % inhibition values for tested compounds were plotted and the concentration of compound required for 50% inhibition (IC50) was determined with a Four-parameter logistic dose response equation. The endpoint value (IC50) for the reference compound was evaluated in each experiment as a quality control measure. If the endpoint value is within 3-fold of the expected value, then the experiment quality is deemed as acceptable. The results are provided in Table 1 below. ≤0.1 μM=“++++”; >0.1 and ≤0.5 μM=“+++”; >0.5 and ≤5.0 μM=“++”; >5.0 μM=“+”. “−”=not available.

[1] abbreviates: PAD4 ammonia release assay, BAEE substrate, 60 min at RT, read-out: Average IC50 Abs.
Where [2] appears, read: PAD4 activity comparison, read-out: PAD4 Ammonia assay IC50.

Drawing on patent US20250136607A1 (REGOR PHARMACEUTICALS, INC., priority 2021, published 2025), this text covers IC50 for 20 molecules.

Where two headings read alike, the source gives them in different places.

The term IC50 denotes the midpoint of a concentration-inhibition curve.

Chain of Protein arginine deiminase 4 (PAD4) (Q9UM07 whole entry): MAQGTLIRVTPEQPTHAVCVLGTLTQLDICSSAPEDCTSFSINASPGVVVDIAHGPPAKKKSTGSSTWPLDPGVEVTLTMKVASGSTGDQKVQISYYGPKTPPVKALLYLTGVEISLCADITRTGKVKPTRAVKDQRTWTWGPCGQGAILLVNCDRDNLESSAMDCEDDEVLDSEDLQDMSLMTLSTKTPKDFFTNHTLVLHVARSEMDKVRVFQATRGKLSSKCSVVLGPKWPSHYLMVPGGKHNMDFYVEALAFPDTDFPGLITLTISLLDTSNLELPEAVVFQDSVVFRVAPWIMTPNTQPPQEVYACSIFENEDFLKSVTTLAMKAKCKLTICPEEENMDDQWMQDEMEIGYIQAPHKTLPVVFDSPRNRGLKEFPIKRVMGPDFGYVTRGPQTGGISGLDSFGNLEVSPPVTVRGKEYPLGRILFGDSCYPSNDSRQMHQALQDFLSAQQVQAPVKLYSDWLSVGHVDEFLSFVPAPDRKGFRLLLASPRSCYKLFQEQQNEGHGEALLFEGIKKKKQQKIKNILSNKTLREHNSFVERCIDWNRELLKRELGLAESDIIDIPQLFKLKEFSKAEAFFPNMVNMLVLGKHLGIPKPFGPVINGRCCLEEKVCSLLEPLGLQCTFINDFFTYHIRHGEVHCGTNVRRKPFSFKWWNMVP

As for `Cn1c(-c2cc3ccc4c(Cl)c[nH]c4c3n2CC2CC2)nc2cc(C(=O)N3C[C@H]4CC[C@@H]3[C@@H]4N)cc(F)c21` [Example 149, ((1R,4R,7R)-7-amino-2-azabicyclo[2.2.1]heptan-2-yl)(2-(6-chloro-1-(cyclopropylmethyl)-1,8-dihydropyrrolo[3,2-g]indol-2-yl)-7-fluoro-1-methyl-1H-benzo[d]imidazol-5-yl)methanone], the IC50 under setting [1] lay within 0.5 to 5 µM.

`CCC1CC(=O)c2cccc3cc(-c4nc5cc(C(=O)N6C[C@H]7CC[C@@H]6[C@@H]7N)cc(F)c5n4C)n1c23` (stereo partly drawn) [Example 139, 2-(5-((1R,4R,7R)-7-amino-2-azabicyclo[2.2.1]heptane-2-carbonyl)-7-fluoro-1-methyl-1H-benzo[d]imidazol-2-yl)-4-ethyl-4,5-dihydro-6H-pyrrolo[3,2,1-ij]quinolin-6-one]: the IC50 under setting [1] is 0.5 to 5 µM.

For the molecule `COc1cc(C(=O)N2C[C@H]3CC[C@@H]2[C@@H]3N)cc2nc(-c3cc4cccc5c4n3CCN5CCCNC(=O)NC3CC3)n(C)c12` [Example 6, 1-(3-(5-(5-((1R,4R,7R)-7-amino-2-azabicyclo[2.2.1]heptane-2-carbonyl)-7-methoxy-1-methyl-1H-benzo[d]imidazol-2-yl)-2,3-dihydro-1H-pyrrolo[1,2,3-de]quinoxalin-1-yl)propyl)-3-cyclopropylurea], under setting [1], the IC50 was in the range of 0.5 to 5 µM.

On to `COc1cc(C(=O)N2C[C@H]3CC[C@@H]2[C@@H]3N)cc2nc(-c3cc4cccc5c4n3CCN5CCCO)n(Cc3cnn(C)c3)c12` [Example 45, ((1R,4R,7R)-7-amino-2-azabicyclo[2.2.1]heptan-2-yl)(2-(1-(3-hydroxypropyl)-2,3-dihydro-1H-pyrrolo[1,2,3-de]quinoxalin-5-yl)-7-methoxy-1-((1-methyl-1H-pyrazol-4-yl)methyl)-1H-benzo[d]imidazol-5-yl)methanone], for which, under setting [1], the IC50 is more than 5 µM.

Regarding `Cn1c(-c2cc3ccc(C(F)(F)F)c4c3n2C(C2CC2)CN4)nc2cc(C(=O)N3C[C@H]4CC[C@@H]3[C@@H]4N)cc(F)c21` (stereo partly drawn) [Example 121, [(1R,4R,7R)-7-amino-2-azabicyclo[2.2.1]heptan-2-yl]-[2-[11-cyclopropyl-7-(trifluoromethyl)-1,9-diazatricyclo[6.3.1.0^4,12]dodeca-2,4,6,8(12)-tetraen-2-yl]-7-fluoro-1-methyl-benzimidazol-5-yl]methanone], under setting [1], the concentration for half-maximal inhibition (IC50) was not above 0.1 µM.

For the molecule `CCC1CNc2cccc3cc(-c4nc5cc(C(=O)N6C[C@H]7CC[C@@H]6[C@@H]7N)cnn5c4C)n1c23` (stereo partly drawn) [Example 138, [(1R,4R,7R)-7-amino-2-azabicyclo[2.2.1]heptan-2-yl]-[2-(11-ethyl-1,9-diazatricyclo[6.3.1.0^4,12]dodeca-2,4,6,8(12)-tetraen-2-yl)-3-methyl-imidazo[1,2-b]pyridazin-7-yl]methanone], the concentration for half-maximal inhibition (IC50) under setting [1] fell in the range of 0.5 to 5 µM.

Turning to `COc1cc(C(=O)N2CCC[C@@H](N)C2)cc2nc(-c3cc4cccc5c4n3CCN5CCCNC(=O)NC3CC3)n(C)c12` [Example 5, (R)-1-(3-(5-(5-(3-aminopiperidine-1-carbonyl)-7-methoxy-1-methyl-1H-benzo[d]imidazol-2-yl)-2,3-dihydro-1H-pyrrolo[1,2,3-de]quinoxalin-1-yl)propyl)-3-cyclopropylurea], the IC50 under setting [1] was 0.5 to 5 µM.

For the molecule `COc1cc(C(=O)N2C[C@H](N)C[C@@H](F)C2)cc2nc(-c3cc4cccc5c4n3CCN5CCOCCO)n(C)c12` [Example 22, ((3R,5R)-3-amino-5-fluoropiperidin-1-yl)(2-(1-(2-(2-hydroxyethoxy)ethyl)-2,3-dihydro-1H-pyrrolo[1,2,3-de]quinoxalin-5-yl)-7-methoxy-1-methyl-1H-benzo[d]imidazol-5-yl)methanone], under setting [1], the IC50 fell in the range of 0.1 to 0.5 µM.

As to `COc1cc(C(=O)N2CCC[C@@H](N)C2)cc2nc(-c3cc4cccc5c4n3CCN5C3CC(NC(C)=O)C3)n(C)c12` (stereo partly drawn) [Example 33, (R)—N-(3-(5-(5-(3-aminopiperidine-1-carbonyl)-7-methoxy-1-methyl-1H-benzo[d]imidazol-2-yl)-2,3-dihydro-1H-pyrrolo[1,2,3-de]quinoxalin-1-yl)cyclobutyl)acetamide], the 50% inhibitory concentration (IC50) under setting [1] was 0.5 to 5 µM.

Take `Cn1c(-c2cc3c(C#N)ccc4c3n2[C@@H](C2CC2)CN4)nc2cc(C(=O)N3C[C@H]4CC[C@@H]3[C@@H]4N)cc(F)c21` [Example 120, (S)-5-(5-((1R,4R,7R)-7-amino-2-azabicyclo[2.2.1]heptane-2-carbonyl)-7-fluoro-1-methyl-1H-benzo[d]imidazol-2-yl)-3-cyclopropyl-2,3-dihydro-1H-pyrrolo[1,2,3-de]quinoxaline-7-carbonitrile]: the IC50 under setting [1] is more than 5 µM.

With `COc1cc(C(=O)N2C[C@H](N)C[C@@H](F)C2)cc2nc(-c3cc4cccc5c4n3CCN5C(=O)CC#N)n(C)c12` [Example 30, 3-(5-(5-((3R,5R)-3-amino-5-fluoropiperidine-1-carbonyl)-7-methoxy-1-methyl-1H-benzo[d]imidazol-2-yl)-2,3-dihydro-1H-pyrrolo[1,2,3-de]quinoxalin-1-yl)-3-oxopropanenitrile], the IC50 under setting [1] is more than 5 µM.

In the case of `Cn1c(-c2cc3cccc4c3n2CCN4)nc2cc(C(=O)N3CCC[C@@H](N)C3)ccc21` [Example 166, (R)-(3-aminopiperidin-1-yl)(2-(2,3-dihydro-1H-pyrrolo[1,2,3-de]quinoxalin-5-yl)-1-methyl-1H-benzo[d]imidazol-5-yl)methanone], the IC50 under setting [2] is 9.53 µM and the IC50 under setting [1] was more than 5 µM.

Regarding `COc1cc(C(=O)N2C[C@H](N)C[C@@H](F)C2)cc2nc(-c3cc4cccc5c4n3CCN5C(=O)COC(C)=O)n(C)c12` [Example 29, 2-(5-(5-((3R,5R)-3-amino-5-fluoropiperidine-1-carbonyl)-7-methoxy-1-methyl-1H-benzo[d]imidazol-2-yl)-2,3-dihydro-1H-pyrrolo[1,2,3-de]quinoxalin-1-yl)-2-oxoethyl acetate)], the IC50 under setting [1] is 0.5 to 5 µM.

As to `CC[C@@H]1CN(CCCO)c2cccc3cc(-c4nc5cc(C(=O)N6C[C@H]7CC[C@@H]6[C@@H]7N)cc(F)c5n4CC)n1c23` [Example 97, ((1R,4R,7R)-7-amino-2-azabicyclo[2.2.1]heptan-2-yl)(1-ethyl-2-((R)-3-ethyl-1-(3-hydroxypropyl)-2,3-dihydro-1H-pyrrolo[1,2,3-de]quinoxalin-5-yl)-7-fluoro-1H-benzo[d]imidazol-5-yl)methanone], the concentration for half-maximal inhibition (IC50) under setting [1] was more than 5 µM.

In the case of `COc1cc(C(=O)N2CCC3(CC2)CC3N)cc2nc(-c3cc4cccc5c4n3CCN5CCCO)n(CC3CC3)c12` (stereo not drawn) [Example 56, (1-amino-6-azaspiro[2.5]octan-6-yl)(1-(cyclopropylmethyl)-2-(1-(3-hydroxypropyl)-2,3-dihydro-1H-pyrrolo[1,2,3-de]quinoxalin-5-yl)-7-methoxy-1H-benzo[d]imidazol-5-yl)methanone], the IC50 under setting [1] was more than 5 µM.

For `CN1C(=O)Cc2c1ccc1cc(-c3nc4cc(C(=O)N5C[C@H]6CC[C@@H]5[C@@H]6N)cc(F)c4n3C)n(CC3CC3)c21` [Example 146, 2-(5-((1R,4R,7R)-7-amino-2-azabicyclo[2.2.1]heptane-2-carbonyl)-7-fluoro-1-methyl-1H-benzo[d]imidazol-2-yl)-1-(cyclopropylmethyl)-6-methyl-6,8-dihydropyrrolo[2,3-e]indol-7(1H)-one], the concentration for half-maximal inhibition (IC50) under setting [1] is more than 5 µM.

Regarding `COc1cc(C(=O)N2C[C@H]3CC[C@@H]2[C@@H]3N)cc2nc(-c3cc4cccc5c4n3C(C3CC3)CN5)c(C)n12` (stereo partly drawn) [Example 170, ((1R,4R,7R)-7-amino-2-azabicyclo[2.2.1]heptan-2-yl)(2-(3-cyclopropyl-2,3-dihydro-1H-pyrrolo[1,2,3-de]quinoxalin-5-yl)-5-methoxy-3-methylimidazo[1,2-a]pyridin-7-yl)methanone], under setting [1], the IC50 is more than 5 µM.

`COc1cc(C(=O)N2CC3C(N)C3C2)cc2nc(-c3cc4cccc5c4n3CCN5CCCO)n(CC3CC3)c12` (stereo not drawn) [Example 54, (6-amino-3-azabicyclo[3.1.0]hexan-3-yl)(1-(cyclopropylmethyl)-2-(1-(3-hydroxypropyl)-2,3-dihydro-1H-pyrrolo[1,2,3-de]quinoxalin-5-yl)-7-methoxy-1H-benzo[d]imidazol-5-yl)methanone]: the IC50 under setting [1] is more than 5 µM.

Turning to `CC1COc2cccc3cc(-c4nc5cc(C(=O)N6CCC[C@@H](N)C6)ccc5n4C)n1c23` (stereo partly drawn) [B, reference compound], the IC50 under setting [2] came out at 7.28 µM.

Consider `COc1cc(C(=O)N2CCC3CC3(N)C2)cc2nc(-c3cc4cccc5c4n3CCN5CCCO)n(CC3CC3)c12` (stereo not drawn) [Example 55, (1-amino-3-azabicyclo[4.1.0]heptan-3-yl)(1-(cyclopropylmethyl)-2-(1-(3-hydroxypropyl)-2,3-dihydro-1H-pyrrolo[1,2,3-de]quinoxalin-5-yl)-7-methoxy-1H-benzo[d]imidazol-5-yl)methanone], for which the half-maximal inhibitory concentration (IC50) under setting [1] lay in the range of 0.5 to 5 µM.
